# In patent US20130209431A1, “ISOLATION AND CULTURE OF ERYTHROID PROGENITOR CELLS” (NEW YORK BLOOD CENTER, INC., priority 2012, published 2013):
# Experiments:
# [1] = test system: CD34+CD36−IL-3R+ cells (BFU-E cells); assay: Liquid culture of sorted BFU-E cells, cell numbers counted every day; type: cell-based, human
# Method: (§1) Cells from day 5 cultures were used for sorting since at this time the cultured cells contain about equal numbers of BFU-E and CFU-E forming progenitors. 50×10^6 cells were suspended in 4 mL PBS/0.5% BSA in a 50 mL tube. Cells were blocked with 4% human AB serum for 10 min and subsequently incubated with PE-conjugated mouse anti-human CD34, FITC-conjugated mouse anti-human CD36 and PE-Cy7-conjugated mouse anti-human IL3-R on ice for 30 min in the dark. Cells were washed twice with 40 mL PBS/0.5% BSA and re-suspended in 5 mL PBS/0.5% BSA and stained with the viability marker 7-AAD on ice for 10 min in the dark. Sorting was performed on a MOFLO high-speed cell sorter (Beckman-Coulter). To sort BFU-E and CFU-E cells from primary human bone marrow, we first obtained mononuclear cells by Ficoll density gradient separation. We then obtained CD45^+ cells by positive selection using CD45 magnetic beads. The CD45^+ cells were stained with PE-conjugated mouse anti-human CD34, FITC-conjugated mouse anti-human CD36, PE-Cy7-conjugated mouse anti-human IL3-R, APC-cy7-conjugated mouse anti-human CD45 and APC-conjugated mouse anti-human CD71 for 30 min in the dark. Cells were washed twice with 40 mL PBS/0.5% BSA, re-suspended in 5 mL PBS/0.5% BSA and stained with the viability marker 7-AAD on ice for 10 min in the dark. Sorting was performed on a MOFLO high-speed cell sorter (Beckman-Coulter).
# (§2) 0.1×10^6 of sorted BFU-E and the CFU-E cells were cultured in 1 ml of the first phase culture media (as described before) in the absence or presence of dexamethasone (1 μM) or lenalidomide (10 nM). The cell numbers were counted every day.
# [2] = test system: CD34−CD36+IL-3R− cells (CFU-E cells); assay: Liquid culture of sorted CFU-E cells, cell numbers counted every day; type: cell-based, human
# Method: as §1, with “Cells were washed twice with 40 mL PBS/0.5% BSA, re-suspended in 5 mL PBS/0.5% BSA and stained with the viability marker 7-AAD on ice for 10 min in the dark. Sorting was performed on a MOFLO high-speed cell sorter (Beckman-Coulter).” left out
# as §2
# [3] = test system: human CD34+ cells; conditions: cited from earlier work
# [4] = test system: CFU-E cells; assay: Flow cytometry of GPA surface expression on cultured CFU-E cells (self-renewal); type: cell-based, human; conditions: cultured for 6 days in the presence of lenalidomide
# Method: Cells taken from culture every day (day 1 to day 7) were analyzed for cell surface expression of CD34, IL-3R, CD36, CD71, CD45 and GPA using FACS canto flow cytometer (Becton Dickinson). Cultured cells (1×10^5) were suspended in PBS supplemented with 0.5% BSA and incubated with 4% human AB serum for 10 min on ice in the dark. The cells were subsequently incubated with fluorochrome-conjugated antibodies for 30 min at 4° C. and then washed once with PBS-0.5% BSA. The washed cells were then incubated for 10 min on ice in the dark with 7-AAD for identification of dead cells. All the reactions were performed under conditions of antibody saturation. Electronic compensation was done using unstained samples.
# as §2
# Next, the effect of lenalidomide on CFU-E cells was examined. In this population, the expression of GPA was determined since GPA becomes positive as CFU-E cells differentiate into proerythroblasts. […] These findings imply that lenalidomide promotes self-renewal of the CFU-E cells.
Structure (SMILES),expansion of CD34+CD36−IL-3R+ cells in the presence versus absence of dexamethasone ([1]; dexamethasone 1 μM) [fold],"expansion of CD34+CD36−IL-3R+ cells ([1]; dexamethasone 1 μM, from 0.1×10^6 cells, untreated 70-fold) [fold]","cell number reached by CD34+CD36−IL-3R+ cells ([1]; dexamethasone 1 μM, start 0.1×10^6, untreated 7×10^6)","duration of continued proliferation of CD34+CD36−IL-3R+ cells ([1]; dexamethasone 1 μM, untreated 6 days) [days]",reduction of BFU-E cell doubling time ([1]; in the presence of dexamethasone) [%],effect on the proliferation of CD34+CD36−IL-3R+ cells ([1]; lenalidomide 10 nM),response of CD34−CD36+IL-3R− cell proliferation to treatment ([2]; dexamethasone 1 μM or lenalidomide 10 nM),"increase of CD34−CD36+IL-3R− cell numbers every day ([2]; lenalidomide 10 nM, doubled every 24 hours in the absence)",effect on BFU-E colony formation [3],effect on CFU-E colony formation [3],surface expression of GPA on CFU-E cells [4]
C[C@@H]1C[C@H]2[C@@H]3CCC4=CC(=O)C=C[C@]4(C)[C@@]3(F)[C@@H](O)C[C@]2(C)[C@@]1(O)C(=O)CO [dexamethasone],~20,1300,130×10^6,9,33,–,–,–,–,–,–
Nc1cccc2c1CN(C1CCC(=O)NC1=O)C2=O (centres unmarked) [lenalidomide],–,–,–,–,–,no effect,enhanced the proliferation and expansion,tripled,not BFU-E colony,promotes CFU-E colony formation,remains negative
